Assays:
[1] = test system: windgrass; test: Test Example 5: herbicidal effect by foliage application, plastic box (Table 20, symbol L); type: in vivo, windgrass (Apera spica-venti); conditions: amount of applied herbicide 320 g/ha; foliage application after 14-day growth; evaluated three weeks after application
In short: (§1)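 Plants sown in sterilized diluvial soil and grown 14 days in a greenhouse at 25° C to 30° C, then sprayed on the foliage with the compound's emulsion diluted in water to a predetermined herbicide amount. Injury to weeds and crops scored three weeks after application on a visual rating scale.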

[2] = test system: Italian ryegrass; test: Test Example 4: herbicidal effect by soil treatment (Table 19, symbol K); type: in vivo, Italian ryegrass (Lolium multiflorum); conditions: amount of applied herbicide 320 g/ha
In short: (§2)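 Seeds were sown in sterilized diluvial soil and covered with about 1.5 cm of soil. An emulsion formulation diluted with water to a predetermined herbicide amount was sprayed evenly onto the soil surface. Plants grew in a greenhouse at 25° C. to 30° C., and the effect was scored three weeks after application using criteria from an earlier test.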

[3] = test system: southern crabgrass; test: Test Example 5: herbicidal effect by foliage application, plastic box (Table 20, symbol F); type: in vivo, southern crabgrass (Digitaria ciliaris); conditions: amount of applied herbicide 320 g/ha; foliage application after 14-day growth; evaluated three weeks after application
In short: as §1

[4] = test system: late watergrass; test: Test Example 1: herbicidal activity, application before weed generation under submerged conditions (Table 16, symbol A); type: in vivo, late watergrass (Echinochloa oryzicola); conditions: amount of applied herbicide 320 g/ha
In short: (§3)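 Alluvial soil was flooded to 4 cm depth, weed seeds were sown mixed and 2.5-leaf rice seedlings were transplanted. On sowing day, the compound's emulsion, diluted in water to a set dose, was applied to the water surface. Plants grew at 25–30 °C and were scored 0–5 after three weeks.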

[5] = test system: barnyard grass; test: Test Example 4: herbicidal effect by soil treatment (Table 19, symbol H); type: in vivo, barnyard grass (Echinochloa crus-galli); conditions: amount of applied herbicide 320 g/ha
In short: as §2

[6] = test system: chickweed; test: Test Example 4: herbicidal effect by soil treatment (Table 19, symbol P); type: in vivo, common chickweed (Stellaria media); conditions: amount of applied herbicide 320 g/ha
In short: as §2

[7] = test system: velvetleaf; test: Test Example 5: herbicidal effect by foliage application, plastic box (Table 20, symbol M); type: in vivo, velvetleaf (Abutilon theophrasti); conditions: amount of applied herbicide 320 g/ha; foliage application after 14-day growth; evaluated three weeks after application
In short: as §1

[8] = test system: lambsquarters; test: Test Example 4: herbicidal effect by soil treatment (Table 19, symbol O); type: in vivo, lambsquarters (Chenopodium album); conditions: amount of applied herbicide 320 g/ha
In short: as §2

[9] = test system: velvetleaf; test: Test Example 4: herbicidal effect by soil treatment (Table 19, symbol M); type: in vivo, velvetleaf (Abutilon theophrasti); conditions: amount of applied herbicide 320 g/ha
In short: as §2

[10] = test system: persian speedwell; test: Test Example 5: herbicidal effect by foliage application, plastic box (Table 20, symbol R); type: in vivo, Persian speedwell (Veronica persica); conditions: amount of applied herbicide 320 g/ha; foliage application after 14-day growth; evaluated three weeks after application
In short: as §1

[11] = test system: rice flat sedge; test: Test Example 3: herbicidal effect by foliage application, Wagner pot (Table 18, symbol E); type: in vivo, rice flat sedge (Cyperus iria); conditions: 320 g/ha
In short: (§4)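 Plants were sown in alluvial soil held under 0.1–0.5 cm standing water and grown 14 days in a greenhouse at 25–30 °C. An emulsifiable formulation, water-diluted to the set dose, was then sprayed onto the foliage, and effects were scored three weeks later using previously defined criteria.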

[12] = test system: green foxtail; test: Test Example 4: herbicidal effect by soil treatment (Table 19, symbol G); type: in vivo, green foxtail (Setaria viridis); conditions: amount of applied herbicide 320 g/ha
In short: as §2

[13] = test system: Chinese sprangletop; test: Test Example 3: herbicidal effect by foliage application, Wagner pot (Table 18, symbol D); type: in vivo, chinese sprangletop (Leptochloa chinensis); conditions: 320 g/ha
In short: as §4

[14] = test system: green foxtail; test: Test Example 5: herbicidal effect by foliage application, plastic box (Table 20, symbol G); type: in vivo, green foxtail (Setaria viridis); conditions: amount of applied herbicide 320 g/ha; foliage application after 14-day growth; evaluated three weeks after application
In short: as §1

[15] = test system: persian speedwell; test: Test Example 4: herbicidal effect by soil treatment (Table 19, symbol R); type: in vivo, Persian speedwell (Veronica persica); conditions: amount of applied herbicide 320 g/ha
In short: as §2

[16] = test system: redroot pigweed; test: Test Example 4: herbicidal effect by soil treatment (Table 19, symbol N); type: in vivo, redroot pigweed (Amaranthus retroflexus); conditions: amount of applied herbicide 320 g/ha
In short: as §2

[17] = test system: Japanese bulrush; test: Test Example 1: herbicidal activity, application before weed generation under submerged conditions (Table 16, symbol B); type: in vivo, Japanese bulrush (Schoenoplectus juncoides); conditions: amount of applied herbicide 320 g/ha
In short: as §3

[18] = test system: southern crabgrass; test: Test Example 4: herbicidal effect by soil treatment (Table 19, symbol F); type: in vivo, southern crabgrass (Digitaria ciliaris); conditions: amount of applied herbicide 320 g/ha
In short: as §2

[19] = test system: barnyard grass; test: Test Example 3: herbicidal effect by foliage application, Wagner pot (Table 18, symbol H); type: in vivo, barnyard grass (Echinochloa crus-galli); conditions: 320 g/ha
In short: as §4

[20] = test system: wild oat; test: Test Example 4: herbicidal effect by soil treatment (Table 19, symbol I); type: in vivo, wild oat (Avena fatua); conditions: amount of applied herbicide 320 g/ha
In short: as §2

[21] = test system: Italian ryegrass; test: Test Example 5: herbicidal effect by foliage application, plastic box (Table 20, symbol K); type: in vivo, Italian ryegrass (Lolium multiflorum); conditions: amount of applied herbicide 320 g/ha; foliage application after 14-day growth; evaluated three weeks after application
In short: as §1

[22] = test system: blackgrass; test: Test Example 4: herbicidal effect by soil treatment (Table 19, symbol J); type: in vivo, blackgrass (Alopecurus myosuroides); conditions: amount of applied herbicide 320 g/ha
In short: as §2

[23] = test system: redroot pigweed; test: Test Example 5: herbicidal effect by foliage application, plastic box (Table 20, symbol N); type: in vivo, redroot pigweed (Amaranthus retroflexus); conditions: amount of applied herbicide 320 g/ha; foliage application after 14-day growth; evaluated three weeks after application
In short: as §1

[24] = test system: barnyard grass; test: Test Example 5: herbicidal effect by foliage application, plastic box (Table 20, symbol H); type: in vivo, barnyard grass (Echinochloa crus-galli); conditions: amount of applied herbicide 320 g/ha; foliage application after 14-day growth; evaluated three weeks after application
In short: as §1

[25] = test system: windgrass; test: Test Example 4: herbicidal effect by soil treatment (Table 19, symbol L); type: in vivo, windgrass (Apera spica-venti); conditions: amount of applied herbicide 320 g/ha
In short: as §2

[26] = test system: lambsquarters; test: Test Example 5: herbicidal effect by foliage application, plastic box (Table 20, symbol O); type: in vivo, lambsquarters (Chenopodium album); conditions: amount of applied herbicide 320 g/ha; foliage application after 14-day growth; evaluated three weeks after application
In short: as §1

[27] = test system: chickweed; test: Test Example 5: herbicidal effect by foliage application, plastic box (Table 20, symbol P); type: in vivo, common chickweed (Stellaria media); conditions: amount of applied herbicide 320 g/ha; foliage application after 14-day growth; evaluated three weeks after application
In short: as §1

[28] = test system: oval-leafed pondweed; test: Test Example 1: herbicidal activity, application before weed generation under submerged conditions (Table 16, symbol C); type: in vivo, oval-leafed pondweed (Monochoria vaginalis); conditions: amount of applied herbicide 320 g/ha
In short: as §3

[29] = test system: wild oat; test: Test Example 5: herbicidal effect by foliage application, plastic box (Table 20, symbol I); type: in vivo, wild oat (Avena fatua); conditions: amount of applied herbicide 320 g/ha; foliage application after 14-day growth; evaluated three weeks after application
In short: as §1

[30] = test system: blackgrass; test: Test Example 5: herbicidal effect by foliage application, plastic box (Table 20, symbol J); type: in vivo, blackgrass (Alopecurus myosuroides); conditions: amount of applied herbicide 320 g/ha; foliage application after 14-day growth; evaluated three weeks after application
In short: as §1

| SMILES | Herbicidal effect by foliage application, L: windgrass [1] | K: Italian ryegrass, herbicidal effect grade [2] | Herbicidal effect by foliage application, F: southern crabgrass [3] | Herbicidal effect, A: late watergrass [4] | H: barnyard grass, herbicidal effect grade [5] | P: chickweed, herbicidal effect grade [6] | Herbicidal effect by foliage application, M: velvetleaf [7] | O: lambsquarters, herbicidal effect grade [8] | M: velvetleaf, herbicidal effect grade [9] | Herbicidal effect by foliage application, R: persian speedwell [10] | herbicidal effect on rice flat sedge (E) [11] | G: green foxtail, herbicidal effect grade [12] | herbicidal effect on Chinese sprangletop (D) [13] | Herbicidal effect by foliage application, G: green foxtail [14] | R: persian speedwell, herbicidal effect grade [15] | N: redroot pigweed, herbicidal effect grade [16] | Herbicidal effect, B: Japanese bulrush [17] | F: southern crabgrass, herbicidal effect grade [18] | herbicidal effect on barnyard grass (H) [19] | I: wild oat, herbicidal effect grade [20] | other results |
| --- | --- | --- | --- | --- | --- | --- | --- | --- | --- | --- | --- | --- | --- | --- | --- | --- | --- | --- | --- | --- | --- |
| Cc1nn(C)c(=O)c(-c2c(-c3ccccc3OC(C)C)sc3cc(F)c(F)cc23)c1O [5-018] | 0 (Herbicidal rate of 5% or less (almost no effect)) | 0 (Herbicidal rate of 5% or less (almost no effect)) | 0 (Herbicidal rate of 5% or less (almost no effect)) | 0 (Herbicidal rate of 5% or less (almost no effect)) | 2 (Herbicidal rate of 20% or more and less than 40%) | 4 (Herbicidal rate of 70% or more and less than 90%) | 4 (Herbicidal rate of 70% or more and less than 90%) | 1 (Herbicidal rate of 5% or more and less than 20%) | 0 (Herbicidal rate of 5% or less (almost no effect)) | 5 (Herbicidal rate of 90% or more (almost completely withered)) | 3 (Herbicidal rate of 40% or more and less than 70%) | 3 (Herbicidal rate of 40% or more and less than 70%) | 0 (Herbicidal rate of 5% or less (almost no effect)) | 2 (Herbicidal rate of 20% or more and less than 40%) | 3 (Herbicidal rate of 40% or more and less than 70%) | 2 (Herbicidal rate of 20% or more and less than 40%) | 5 (Herbicidal rate of 90% or more (almost completely withered)) | 0 (Herbicidal rate of 5% or less (almost no effect)) | 4 (Herbicidal rate of 70% or more and less than 90%) | 0 (Herbicidal rate of 5% or less (almost no effect)) | Herbicidal effect by foliage application, K: Italian ryegrass [21]: 0 (Herbicidal rate of 5% or less (almost no effect)); J: blackgrass, herbicidal effect grade [22]: 0 (Herbicidal rate of 5% or less (almost no effect)); Herbicidal effect by foliage application, N: redroot pigweed [23]: 1 (Herbicidal rate of 5% or more and less than 20%); Herbicidal effect by foliage application, H: barnyard grass [24]: 0 (Herbicidal rate of 5% or less (almost no effect)); L: windgrass, herbicidal effect grade [25]: 0 (Herbicidal rate of 5% or less (almost no effect)); Herbicidal effect by foliage application, O: lambsquarters [26]: 0 (Herbicidal rate of 5% or less (almost no effect)); Herbicidal effect by foliage application, P: chickweed [27]: 5 (Herbicidal rate of 90% or more (almost completely withered)); Herbicidal effect, C: oval-leafed pondweed [28]: 5 (Herbicidal rate of 90% or more (almost completely withered)); Herbicidal effect by foliage application, I: wild oat [29]: 0 (Herbicidal rate of 5% or less (almost no effect)); Herbicidal effect by foliage application, J: blackgrass [30]: 1 (Herbicidal rate of 5% or more and less than 20%) |
| CCCC(=O)Oc1c(C)nn(C)c(=O)c1-c1c(-c2ccc(OC(C)C)cc2)sc2cc(F)c(F)cc12 [5-020] | 0 (Herbicidal rate of 5% or less (almost no effect)) | 0 (Herbicidal rate of 5% or less (almost no effect)) | 0 (Herbicidal rate of 5% or less (almost no effect)) | 3 (Herbicidal rate of 40% or more and less than 70%) | 0 (Herbicidal rate of 5% or less (almost no effect)) | 0 (Herbicidal rate of 5% or less (almost no effect)) | 2 (Herbicidal rate of 20% or more and less than 40%) | 0 (Herbicidal rate of 5% or less (almost no effect)) | 0 (Herbicidal rate of 5% or less (almost no effect)) | 5 (Herbicidal rate of 90% or more (almost completely withered)) | 0 (Herbicidal rate of 5% or less (almost no effect)) | 0 (Herbicidal rate of 5% or less (almost no effect)) | 0 (Herbicidal rate of 5% or less (almost no effect)) | 0 (Herbicidal rate of 5% or less (almost no effect)) | 3 (Herbicidal rate of 40% or more and less than 70%) | 3 (Herbicidal rate of 40% or more and less than 70%) | 0 (Herbicidal rate of 5% or less (almost no effect)) | 0 (Herbicidal rate of 5% or less (almost no effect)) | 3 (Herbicidal rate of 40% or more and less than 70%) | 0 (Herbicidal rate of 5% or less (almost no effect)) | Herbicidal effect by foliage application, K: Italian ryegrass [21]: 0 (Herbicidal rate of 5% or less (almost no effect)); J: blackgrass, herbicidal effect grade [22]: 0 (Herbicidal rate of 5% or less (almost no effect)); Herbicidal effect by foliage application, N: redroot pigweed [23]: 4 (Herbicidal rate of 70% or more and less than 90%); Herbicidal effect by foliage application, H: barnyard grass [24]: 1 (Herbicidal rate of 5% or more and less than 20%); L: windgrass, herbicidal effect grade [25]: 0 (Herbicidal rate of 5% or less (almost no effect)); Herbicidal effect by foliage application, O: lambsquarters [26]: 3 (Herbicidal rate of 40% or more and less than 70%); Herbicidal effect by foliage application, P: chickweed [27]: 4 (Herbicidal rate of 70% or more and less than 90%); Herbicidal effect, C: oval-leafed pondweed [28]: 0 (Herbicidal rate of 5% or less (almost no effect)); Herbicidal effect by foliage application, I: wild oat [29]: 0 (Herbicidal rate of 5% or less (almost no effect)); Herbicidal effect by foliage application, J: blackgrass [30]: 0 (Herbicidal rate of 5% or less (almost no effect)) |

From patent publication US20230085307A1, “PYRIDAZINONE COMPOUND AND HERBICIDE” (NISSAN CHEMICAL CORPORATION, priority 2019, published 2023)
